Results reported in the supplement of paper PMC10307832.

Legend:
Assay in all cases: relative viability (nuclei count vs DMSO), 5 days (fraction); higher = more cells survive
NCI-H23 = tested on: NCI-H23
Method in brief: (§1)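 Lung cancer cell lines in 1536-well plates got either a single drug or a fixed anchor-drug dose together with five library-drug doses (not always all listed) in √10 steps, by pin tool, on the day after seeding. Nuclei were counted after 5 days, and relative viability is the treated-to-vehicle ratio of nuclei counts. Values are medians of duplicate plates.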

SK-LU-1 = tested on: SK-LU-1
Method in brief: as §1

NCI-H1793 = tested on: NCI-H1793
Method in brief: as §1

NCI-H661 = tested on: NCI-H661
Method in brief: as §1

PC-14 = tested on: PC-14
Method in brief: as §1

EKVX = tested on: EKVX
Method in brief: as §1

NCI-H1993 = tested on: NCI-H1993
Method in brief: as §1

NCI-H460 = tested on: NCI-H460
Method in brief: as §1

ChaGo-K-1 = tested on: ChaGo-K-1
Method in brief: as §1

NCI-H1944 = tested on: NCI-H1944
Method in brief: as §1

EPLC-272H = tested on: EPLC-272H
Method in brief: as §1

NCI-H322M = tested on: NCI-H322M
Method in brief: as §1

NCI-H1792 = tested on: NCI-H1792
Method in brief: as §1

H3255 = tested on: H3255
Method in brief: as §1

HCC-15 = tested on: HCC-15
Method in brief: as §1

LCLC-97TM1 = tested on: LCLC-97TM1
Method in brief: as §1

HCC-827 = tested on: HCC-827
Method in brief: as §1

LC-2-ad = tested on: LC-2-ad
Method in brief: as §1

NCI-H1915 = tested on: NCI-H1915
Method in brief: as §1

NCI-H522 = tested on: NCI-H522
Method in brief: as §1

SW 900 = tested on: SW 900
Method in brief: as §1

EMC-BAC-2 = tested on: EMC-BAC-2
Method in brief: as §1

`COCC1(CO)C(=O)C2CCN1CC2` (configuration not stated) [PRIMA-1MET] + O=C(c1cc(Cc2n[nH]c(=O)c3ccccc23)ccc1F)N1CCN(C(=O)C2CC2)CC1 [Olaparib] (partner 8 µM) gave a relative viability (NCI-H23; first compound 0.2 µM) of 0.313, a relative viability (NCI-H23; first compound 0.6325 µM) of 0.291 and a relative viability (NCI-H23; first compound 2 µM) of 0.287. It also gave a relative viability (NCI-H23; first compound 6.325 µM) of 0.27, a relative viability (NCI-H23; first compound 20 µM) of 0.082 and a relative viability (SK-LU-1; first compound 0.2 µM) of 0.504. For the same compound, the relative viability (SK-LU-1; first compound 0.6325 µM) was 0.494, the relative viability (SK-LU-1; first compound 2 µM) was 0.365 and the relative viability (SK-LU-1; first compound 6.325 µM) was 0.455. The relative viability (SK-LU-1; first compound 20 µM) was 0.237, the relative viability (NCI-H1793; first compound 0.2 µM) was 1.04 and the relative viability (NCI-H1793; first compound 0.6325 µM) was 0.887. The relative viability (NCI-H1793; first compound 6.325 µM) was 0.843, the relative viability (NCI-H1793; first compound 20 µM) was 0.539 and the relative viability (NCI-H661; first compound 0.2 µM) was 0.827. For the same compound, the relative viability (NCI-H661; first compound 0.6325 µM) was 0.721, the relative viability (NCI-H661; first compound 2 µM) was 0.76 and the relative viability (NCI-H661; first compound 6.325 µM) was 0.753. It also gave a relative viability (NCI-H661; first compound 20 µM) of 0.751, a relative viability (PC-14; first compound 0.2 µM) of 0.261 and a relative viability (PC-14; first compound 0.6325 µM) of 0.208. For the same compound, the relative viability (PC-14; first compound 2 µM) was 0.24, the relative viability (PC-14; first compound 6.325 µM) was 0.275 and the relative viability (PC-14; first compound 20 µM) was 0.209. The relative viability (EKVX; first compound 0.2 µM) was 1.01, the relative viability (EKVX; first compound 2 µM) was 0.694 and the relative viability (EKVX; first compound 6.325 µM) was 0.825. It also gave a relative viability (EKVX; first compound 20 µM) of 0.403, a relative viability (NCI-H1993; first compound 0.2 µM) of 1.21 and a relative viability (NCI-H1993; first compound 2 µM) of 0.95. It also gave a relative viability (NCI-H1993; first compound 6.325 µM) of 1.07, a relative viability (NCI-H1993; first compound 20 µM) of 0.896 and a relative viability (NCI-H460; first compound 0.2 µM) of 0.532. The relative viability (NCI-H460; first compound 0.6325 µM) was 0.337, the relative viability (NCI-H460; first compound 2 µM) was 0.384 and the relative viability (NCI-H460; first compound 6.325 µM) was 0.451. The relative viability (NCI-H460; first compound 20 µM) was 0.162, the relative viability (ChaGo-K-1; first compound 0.2 µM) was 0.461 and the relative viability (ChaGo-K-1; first compound 0.6325 µM) was 0.407. It also gave a relative viability (ChaGo-K-1; first compound 2 µM) of 0.437, a relative viability (ChaGo-K-1; first compound 6.325 µM) of 0.426 and a relative viability (ChaGo-K-1; first compound 20 µM) of 0.318. It also gave a relative viability (NCI-H1944; first compound 0.2 µM) of 0.479, a relative viability (NCI-H1944; first compound 0.6325 µM) of 0.393 and a relative viability (NCI-H1944; first compound 2 µM) of 0.415. For the same compound, the relative viability (NCI-H1944; first compound 6.325 µM) was 0.398, the relative viability (NCI-H1944; first compound 20 µM) was 0.457 and the relative viability (EPLC-272H; first compound 0.2 µM) was 0.655. For the same compound, the relative viability (EPLC-272H; first compound 0.6325 µM) was 0.89, the relative viability (EPLC-272H; first compound 2 µM) was 0.911 and the relative viability (EPLC-272H; first compound 6.325 µM) was 0.694. It also gave a relative viability (EPLC-272H; first compound 20 µM) of 0.0737, a relative viability (NCI-H322M; first compound 0.2 µM) of 0.851 and a relative viability (NCI-H322M; first compound 0.6325 µM) of 0.668. For the same compound, the relative viability (NCI-H322M; first compound 6.325 µM) was 0.772, the relative viability (NCI-H322M; first compound 20 µM) was 0.568 and the relative viability (NCI-H1792; first compound 0.2 µM) was 0.899. The relative viability (NCI-H1792; first compound 6.325 µM) was 0.444, the relative viability (NCI-H1792; first compound 20 µM) was 0.457 and the relative viability (H3255; first compound 0.2 µM) was 0.627. It also gave a relative viability (H3255; first compound 0.6325 µM) of 0.502, a relative viability (H3255; first compound 2 µM) of 0.576 and a relative viability (H3255; first compound 6.325 µM) of 0.606. The relative viability (H3255; first compound 20 µM) was 0.533, the relative viability (HCC-15; first compound 0.2 µM) was 0.789 and the relative viability (HCC-15; first compound 0.6325 µM) was 0.772. The relative viability (HCC-15; first compound 2 µM) was 0.746, the relative viability (HCC-15; first compound 6.325 µM) was 0.668 and the relative viability (HCC-15; first compound 20 µM) was 0.628. It also gave a relative viability (LCLC-97TM1; first compound 0.2 µM) of 0.45, a relative viability (LCLC-97TM1; first compound 0.6325 µM) of 0.33 and a relative viability (LCLC-97TM1; first compound 2 µM) of 0.461. The relative viability (LCLC-97TM1; first compound 6.325 µM) was 0.347, the relative viability (LCLC-97TM1; first compound 20 µM) was 0.236 and the relative viability (HCC-827; first compound 0.2 µM) was 0.675. The relative viability (HCC-827; first compound 0.6325 µM) was 0.675, the relative viability (HCC-827; first compound 2 µM) was 0.587 and the relative viability (HCC-827; first compound 6.325 µM) was 0.684. For the same compound, the relative viability (HCC-827; first compound 20 µM) was 0.627, the relative viability (LC-2-ad; first compound 0.2 µM) was 0.751 and the relative viability (LC-2-ad; first compound 0.6325 µM) was 0.673. It also gave a relative viability (LC-2-ad; first compound 2 µM) of 0.659, a relative viability (LC-2-ad; first compound 6.325 µM) of 0.68 and a relative viability (LC-2-ad; first compound 20 µM) of 0.7. It also gave a relative viability (NCI-H1915; first compound 0.2 µM) of 0.249, a relative viability (NCI-H1915; first compound 0.6325 µM) of 0.235 and a relative viability (NCI-H1915; first compound 2 µM) of 0.239. It also gave a relative viability (NCI-H1915; first compound 6.325 µM) of 0.256, a relative viability (NCI-H1915; first compound 20 µM) of 0.254 and a relative viability (NCI-H522; first compound 0.2 µM) of 0.656. It also gave a relative viability (NCI-H522; first compound 0.6325 µM) of 0.599, a relative viability (NCI-H522; first compound 2 µM) of 0.625 and a relative viability (NCI-H522; first compound 6.325 µM) of 0.604. It also gave a relative viability (NCI-H522; first compound 20 µM) of 0.0709, a relative viability (SW 900; first compound 0.2 µM) of 1.06 and a relative viability (SW 900; first compound 0.6325 µM) of 0.888. For the same compound, the relative viability (SW 900; first compound 6.325 µM) was 0.882, the relative viability (SW 900; first compound 20 µM) was 0.0786 and the relative viability (EMC-BAC-2; first compound 0.2 µM) was 0.624. For the same compound, the relative viability (EMC-BAC-2; first compound 0.6325 µM) was 0.486, the relative viability (EMC-BAC-2; first compound 6.325 µM) was 0.499 and the relative viability (EMC-BAC-2; first compound 20 µM) was 0.43.
